Measured values as given in patent US20100267784A1, “NOVEL 4,5-DIHYDROISOXAZOLES WITH ESTROGENIC ACTIVITY” (priority 2007, published 2010).

Tests used:
Type in all cases: cell-based
[1] = biological target: T1, ERα (Homo sapiens, UniProt P03372); assay: ERα reporter (luciferase) transactivation assay in transfected HEK293 cells; design: expressed in transfected cells; host or cells: HEK293; details: sample concentration 10 μM, 24 hours, mean of at least three independent transfections
T1 sequence (P03372 1-595): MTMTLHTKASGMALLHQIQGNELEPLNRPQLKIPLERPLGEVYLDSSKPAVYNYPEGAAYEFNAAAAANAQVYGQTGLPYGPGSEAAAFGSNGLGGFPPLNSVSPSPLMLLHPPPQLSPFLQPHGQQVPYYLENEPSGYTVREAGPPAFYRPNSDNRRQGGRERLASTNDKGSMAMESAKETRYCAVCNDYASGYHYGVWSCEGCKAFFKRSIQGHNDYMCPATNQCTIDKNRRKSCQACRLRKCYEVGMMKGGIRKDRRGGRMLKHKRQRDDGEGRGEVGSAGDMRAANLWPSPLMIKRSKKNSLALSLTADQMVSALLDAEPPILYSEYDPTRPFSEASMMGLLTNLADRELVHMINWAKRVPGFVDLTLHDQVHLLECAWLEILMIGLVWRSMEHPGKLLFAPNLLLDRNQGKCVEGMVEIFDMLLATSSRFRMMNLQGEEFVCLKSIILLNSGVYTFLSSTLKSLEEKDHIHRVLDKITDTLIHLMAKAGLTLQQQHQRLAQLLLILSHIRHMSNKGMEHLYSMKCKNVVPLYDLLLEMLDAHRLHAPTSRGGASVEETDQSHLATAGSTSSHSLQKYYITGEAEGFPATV
Procedure, shortened: (§1)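 Compounds at 10 μM (or 0.1% vehicle) were applied for 24 hours to HEK293 cells previously transfected with an ERα or ERβ expression plasmid plus ERE-luciferase reporter and β-gal control. Lysate luciferase and β-galactosidase activities were read. Cells were grown in phenol-free, delipidated-serum medium; data are means ±SEM from at least three independent transfections.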

[2] = biological target: T1, ERα; assay: ERα antagonism reporter (luciferase) assay in transfected COS-1 cells; design: expressed in transfected cells; host or cells: COS-1; details: sample concentration 10 μM with 100 nM E2, complete antagonism corresponding to 5.7, 18 hours
Experimental: Determination of the Antiestrogen Activity of the Compounds.
One day before transfection, COS-1 cells were seeded into 1 ml of DMEM (Dulbecco's modified Eagle medium, Gibco) with 10% delipidated fetal bovine serum and 0,25% (vol/vol) Penicillin-Streptomysin (Euroclone) at a density of 70×10^3 cells/well. […] After transfection, the cells received treatment with test compounds giving a final concentration of 10 μM for each compound. In the antagonist test the wells were also treated with 10^−7 M estradiol. After 18 hours, the cells were washed, lysed and assayed for luciferase and normalization for β-galactosidase activities and protein concentrations. The cells were washed with 100 μl of cold phosphate buffered saline (PBS), lysed with 35 μl 1× Reporter lysis Buffer (Promega) and frosted (−70° C.) for 30 minutes. Cell lysates were placed in 1.5 ml of propylene centrifuge tubes and centrifuged with 13200 g for 5 min in room temperature. For β-galactosidase assay 10 μl of supernatant from each cell extract was transferred to a 96-well plate (96 well Elisa Microplates, PS, Microcon) and incubated for 10 min at 37° C. with 65 μl of reaction mixture consisting 0.76 gl 100×Mg-buffer, 12.5 μl ONPG (4 mg/ml), and 54.3 μl of sodium-phosphate buffer (pH 7). The reaction was stopped with treatment of 125 μl Na2CO3. […] For the study of protein concentrations 5 μl of the supernatant was transferred to a 96-well plate (96 well Elisa Microplates, PS, Microcon) and mixed with 200 μl of 1× Bio-rad protein assay reagent. The luciferase activities were measured with Thermo Luminoscan Ascent scanner and the protein concentrations and β-galactosidase activities with Thermo Labsystem Multiscan Ex scanner. Also blank and control samples were measured. During the maintenance, transfection, and treatment with tested compounds the cells were incubated in humidified atmosphere with 5% carbon dioxide at 37° C.

[3] = biological target: ERβ (Homo sapiens, UniProt Q92731); assay: ERβ reporter (luciferase) transactivation assay in transfected HEK293 cells; design: expressed in transfected cells; host or cells: HEK293; details: sample concentration 10 μM, 24 hours, mean of at least three independent transfections
ERβ, sequence (Q92731 whole entry): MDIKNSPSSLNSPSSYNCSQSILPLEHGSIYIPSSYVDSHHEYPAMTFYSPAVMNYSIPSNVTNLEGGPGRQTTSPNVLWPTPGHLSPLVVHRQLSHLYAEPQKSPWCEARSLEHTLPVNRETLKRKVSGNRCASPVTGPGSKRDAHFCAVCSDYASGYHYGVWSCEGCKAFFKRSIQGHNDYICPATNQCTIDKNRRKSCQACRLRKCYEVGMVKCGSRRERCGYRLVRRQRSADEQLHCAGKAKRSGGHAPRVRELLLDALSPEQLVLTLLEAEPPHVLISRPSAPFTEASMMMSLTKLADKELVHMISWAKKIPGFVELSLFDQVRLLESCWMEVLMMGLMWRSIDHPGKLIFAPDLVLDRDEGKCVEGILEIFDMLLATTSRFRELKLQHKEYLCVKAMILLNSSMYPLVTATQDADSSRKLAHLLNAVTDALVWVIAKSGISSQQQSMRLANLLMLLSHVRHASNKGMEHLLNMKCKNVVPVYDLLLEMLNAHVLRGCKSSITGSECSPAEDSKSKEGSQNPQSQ
Procedure, shortened: as §1

ERα receptor activation relative to 10 nM E2 corresponding 100 [1] [%]	ERα receptor antagonism relative to 100 nM E2 corresponding 100 [2]	ERβ receptor activation relative to 10 nM E2 corresponding 100 [3] [%]	SMILES
18.7	55.0	37.4	CC1(c2ccccc2)CC(CCc2ccc(O)cc2)=NO1 (single isomer, unassigned) [87b, 3-[2-(4-Hydroxy-phenyl)-ethyl]-5-methyl-5-phenyl-4,5-dihydro-isoxazole]
7.1	101.8	−2.9	CC1(c2ccccc2)CC(CCc2cccc(O)c2)=NO1 (single isomer, unassigned) [86b, 3-[2-(3-Hydroxy-phenyl)-ethyl]-5-methyl-5-phenyl-4,5-dihydro-isoxazole]
39.7	63.1	18.0	CC1(c2ccccc2)CC(CCc2ccc(O)cc2)=NO1 (single isomer, unassigned) [87a, 3-[2-(4-Hydroxy-phenyl)-ethyl]-5-methyl-5-phenyl-4,5-dihydro-isoxazole]
21.6	87.3	0.5	CC1(c2ccccc2)CC(CCc2cccc(O)c2)=NO1 (single isomer, unassigned) [86a, 3-[2-(3-Hydroxy-phenyl)-ethyl]-5-methyl-5-phenyl-4,5-dihydro-isoxazole]
